# Test results published in PMC9530963, “A cathelicidin antimicrobial peptide from Hydrophis cyanocinctus inhibits Zika virus infection by downregulating expression of a viral entry factor” (The Journal of Biological Chemistry, 2022).
# Legend:
# [1] = test system: TYRO3; test: TYRO3 level in Vero cells (Western blot); format: cell-based, Chlorocebus aethiops; settings: 6, 12, and 24 h post Hc-CATH addition
# Procedure: Figure 3 Hc-CATH downregulates AXL in Vero cell.A, schematic diagram of B and C. B, Vero cells were seeded in 24-well plates (5 × 10^4 cells/well) and cultured in DMEM containing 2% FBS. Hc-CATH (1.25, 2.5, and 5 μM), AC5 (2.5 μM), LL-37 (2.5 μM), or same volume of PBS (peptide solvent) was added to cells. After culture at 37 °C for 6, 12, and 24 h, the levels of ZIKV entry factors, including AXL, TYRO3, and TIM-1, were tested by Western blot, respectively. C, Vero cells were seeded in 8-well cover slip chambers (5 × 10^4 cells/well) and cultured in DMEM containing 2% FBS. Hc-CATH (1.25, 2.5, and 5 μM), AC5 (2.5 μM), LL-37 (2.5 μM), or same volume of PBS (peptide solvent) was added to cells. After culture at 37 °C for 24 h, the level of AXL was tested by immunofluorescence staining. The scale bar represents 50 μm. D, schematic diagram of E. E, Vero cells were seeded in 24-well plates (5 × 10^4 cells/well) and cultured in DMEM containing 2% FBS. Hc-CATH (1.25, 2.5, and 5 μM), AC5 (2.5 μM), LL-37 (2.5 μM), or same volume of PBS (peptide solvent) was added to cells and incubated at 37 °C for 2 h. […] Ratio of AXL to β-actin was analyzed by ImageJ.
# Vero cells were incubated with Hc-CATH (1.25, 2.5, and 5 μM), AC5 (2.5 μM), LL-37 (2.5 μM), or PBS (solvent of peptide). […] The levels of ZIKV entry factors, including AXL, TYRO3, and TIM-1, were detected by WB analysis. […]
# [2] = test system: ZIKV; test: Direct inactivation of ZIKV particles (virus pre-incubated with peptide); format: cell-based, ZIKV strain PRVABC59; settings: ZIKV incubated with 2.5 μM peptide at 37 °C for 2 h, pelleted, added to Vero cells, 48 h; RNA, NS3, E protein, titer
# Procedure: Figure 8 Hc-CATH directly inactivates ZIKV particles by disrupting viral membrane.A, schematic diagram of B–G (Hc-CATH-Vero-pre). B–G, direct inactivation of ZIKV by Hc-CATH. ZIKVs (MOI = 1) were incubated with Hc-CATH (2.5 μM), AC5 (2.5 μM), LL-37 (2.5 μM), or PBS (peptide solvent) at 37 °C for 2 h, and then the ZIKV–PBS mixture and ZIKV–peptide mixture were centrifugated at 100,000g for 70 min. The pellets were washed with PBS and centrifugated at 100,000g for 70 min again. The pellets were resuspended in PBS, added to Vero cells, and incubated for 2 h. Cells were washed with PBS and cultured in fresh DMEM containing 2% FBS. After culture at 37 °C for 48 h, the intracellular ZIKV RNA (B), NS3 protein (C and D), E protein level (E, the scale bar represents 50 μm), and extracellular ZIKV titer (F and G) were tested by qPCR, Western blot, immunofluorescence staining, and plaque-forming assay, respectively. H, binding of Hc-CATH to ZIKV. High-affinity binding plates were coated with 0.25 μM of Hc-CATH, BSA, AC5, or LL-37. Then, 1 × 10^6 PFU of ZIKV was added and incubated. […] Absorbance at 450 nm was measured after reactions were stopped using 0.5 M sulfuric acid. […] After the residual RNase was inactivated, the undigested genomic RNA in the intact ZIKV particles was extracted and quantified by testing the genes of PrM, E, and Cap proteins, respectively. ∗∗p < 0.01 and ∗∗∗p < 0.001. […]
# [3] = test system: ZIKV; test: Leakage of ZIKV genomic RNA (micrococcal nuclease digestion); set-up: species or system ZIKV strain PRVABC59; settings: 1, 20, and 40 μM, 37 °C 2 h; micrococcal nuclease 37 °C 4 h; qPCR of PrM, E, Cap
# Procedure: Figure 8 Hc-CATH directly inactivates ZIKV particles by disrupting viral membrane.A, schematic diagram of B–G (Hc-CATH-Vero-pre). B–G, direct inactivation of ZIKV by Hc-CATH. ZIKVs (MOI = 1) were incubated with Hc-CATH (2.5 μM), AC5 (2.5 μM), LL-37 (2.5 μM), or PBS (peptide solvent) at 37 °C for 2 h, and then the ZIKV–PBS mixture and ZIKV–peptide mixture were centrifugated at 100,000g for 70 min. The pellets were washed with PBS and centrifugated at 100,000g for 70 min again. The pellets were resuspended in PBS, added to Vero cells, and incubated for 2 h. Cells were washed with PBS and cultured in fresh DMEM containing 2% FBS. […] Absorbance at 450 nm was measured after reactions were stopped using 0.5 M sulfuric acid. […] After the residual RNase was inactivated, the undigested genomic RNA in the intact ZIKV particles was extracted and quantified by testing the genes of PrM, E, and Cap proteins, respectively. ∗∗p < 0.01 and ∗∗∗p < 0.001.
# For assay of the disruption of viral membrane by Hc-CATH, ZIKV (about 10^5 PFU) was incubated with Hc-CATH (1, 20, and 40 μM), PBS, or 1% Triton X-100 (positive control) at 37 °C for 2 h. […] The residual RNase was inactivated, the undigested genomic RNA in the intact ZIKV particles was extracted and quantified by testing viral genes encoding membrane protein (PrM), E protein, and capsid (Cap) protein, respectively ([43]).
# [4] = test system: Vero, A549 or U251 cells; settings: 1.25, 2.5, and 5 μM, 48 h, 37 °C, CCK-8
# Procedure: Vero, A549 or U251 cells (1×10^4 cells/well) were seeded
# in 96-well plates . Series of two -fold peptide dilutions in DMEM were added to each well to
# give final concentrations from 0.78125 to 50 μM. After incubation at 37℃ for 48 h, cell
# counting assay kit (CCK -8) was applied to determine the cytotoxicity. ***P < 0.001, ns, not
# [5] = test system: bacteria; set-up: method as in PMID 26013823; settings: cited from earlier work
sequence,measurement,setting,value
"KFFKRLLKSVRRAVKKFRKKPRLIGLSTLL [Hc-CATH, cathelicidin antimicrobial peptide identified from the sea snake Hydrophis cyanocinctus]",level of TYRO3 in Vero cells,[1],did not obviously influence
same,direct inactivation of ZIKV particles,[2],directly inactivated viral particles
same,genomic RNA of peptide-treated virions (leakage),[3],digested by micrococcal nuclease
same,cytotoxicity against mammalian cells,[4],did not have cytotoxicity
same,antibacterial spectrum,[5],broad antibacterial spectrum
